{"source": "paper PMC6941952", "about": "“A homogeneous bioluminescent immunoassay to probe cellular signaling pathway regulation” (Communications Biology, 2020)", "system": "total IκBα", "experiment": "NanoBiT cell-based immunoassay, total IκBα in MCF-7 cells", "design": "species or system human", "details": "with CHX; for IkB Average: background subtracted", "description": "Prior to NanoBiT Cell-Based Immunoassay, 50,000 cells were seeded in 160 µl of complete growth media per well of a 96-well plate and incubated overnight. […] If necessary, the cell culture media were replaced with serum-free media after the cells were stably adherent on the plate and incubated overnight. To treat cells with activators or inhibitors, medium was changed to 30 µl of medium containing inhibitors. If activation of a specific pathway is needed, the cells were stimulated with 10 µl of medium containing activators. To lyse the cells, 10 µl of lysis buffer containing 0.1% digitonin diluted in 1X immunoassay buffer with protease and phosphatase inhibitors was added and the plates were mixed vigorously for 20 min. Then, 50 µl of an antibody mix containing two primary antibodies against the target protein and NanoBiT detecting antibodies (0.3 µl each per well), diluted in 1X immunoassay buffer was added to the lysates. The plates were incubated at 23 °C for 90 min, followed by the addition of 25 µl of Nano-Glo® reagent consisting of Nano-Glo® Luciferase Assay Substrate mixed with 1X immunoassay buffer. Luminescence was measured using a plate-reading luminometer.\nSingle dose or dose response inhibitor treatments were performed prior to activation of the pathways as follows. For IκBα, the cells were treated in 30 µl medium with IKK16 or MG132 for 60 min before the addition of 10 µl of DMEM containing appropriate concentration of TNFα. To measure phosphorylation of AKT or STAT3, the corresponding NanoBiT immunoassays were developed with MCF-7 or A431 cells, respectively, according the same scheme used to develop the IκBα assay using the primary antibodies for AKT and STAT3 described in the reagents section. […] Treatment with LY294002 was performed in 30 µl medium and cells were incubated for 60 min before the addition of 1 µM Insulin. To measure STAT3 phosphorylation, A431 cells were incubated overnight in DMEM medium without serum. […] After addition of the stimulators, the cells were incubated for additional times as follows. IκBα phosphorylation and degradation analyses required both time courses and single time points as described in figures. […] The NanoBiT immunoassay protocol was followed as described above.\nAll 96-well assay plates were read using a GloMax® 96 Microplate Luminometer from Promega. The instrument was set to 0.5 s integration time. In order to obtain net change of signal, the reagent background values (signal from the well containing all reagent except primary antibodies) were subtracted from the sample values. To plot and analyze the data, Microsoft Excel and GraphPad Prism® Software were used. IC50 values were determined by using a nonlinear regression fit to a sigmoidal dose response (variable slope).", "note": "“And” between values parts separate entries of the source, which are not always exact repeats. Identical values can stand only once.", "data": [{"smiles": "C[C@@H]1C[C@@H]([C@H](O)CC2CC(=O)NC(=O)C2)C(=O)[C@@H](C)C1", "note": "[CHX]", "values": [{"measurement": "IKB with CHX Raw data", "setting": "TNF 0 min", "result": "55360 and 57660 and 54100 and 60230"}, {"measurement": "IKB with CHX Subtract reagent background", "setting": "TNF 0 min", "result": "43590 and 45890 and 42330 and 48460"}, {"measurement": "IkB Average", "setting": "TNF 0 min", "result": 45068}, {"measurement": "IKB with CHX Raw data", "setting": "TNF 5 min", "result": "58100 and 62010 and 65600 and 63320"}, {"measurement": "IKB with CHX Subtract reagent background", "setting": "TNF 5 min", "result": "46330 and 50240 and 53830 and 51550"}, {"measurement": "IkB Average", "setting": "TNF 5 min", "result": 50488}, {"measurement": "IKB with CHX Raw data", "setting": "TNF 10 min", "result": "40310 and 45450 and 45320 and 45290"}, {"measurement": "IKB with CHX Subtract reagent background", "setting": "TNF 10 min", "result": "28540 and 33680 and 33550 and 33520"}, {"measurement": "IkB Average", "setting": "TNF 10 min", "result": 32323}, {"measurement": "IKB with CHX Raw data", "setting": "TNF 20 min", "result": "19760 and 23860 and 25280"}, {"measurement": "IKB with CHX Subtract reagent background", "setting": "TNF 20 min", "result": "7990 and 12090 and 13510"}, {"measurement": "IkB Average", "setting": "TNF 20 min", "result": 10395}, {"measurement": "IKB with CHX Raw data", "setting": "TNF 30 min", "result": "17770 and 17940 and 21410 and 21590"}, {"measurement": "IKB with CHX Subtract reagent background", "setting": "TNF 30 min", "result": "6000 and 6170 and 9640 and 9820"}, {"measurement": "IkB Average", "setting": "TNF 30 min", "result": 7908}, {"measurement": "IKB with CHX Raw data", "setting": "TNF 40 min", "result": "17270 and 17950 and 20500 and 19500"}, {"measurement": "IKB with CHX Subtract reagent background", "setting": "TNF 40 min", "result": "5500 and 6180 and 8730 and 7730"}, {"measurement": "IkB Average", "setting": "TNF 40 min", "result": 7035}, {"measurement": "IKB with CHX Raw data", "setting": "TNF 60 min", "result": "18390 and 17430 and 19370 and 18920"}, {"measurement": "IKB with CHX Subtract reagent background", "setting": "TNF 60 min", "result": "6620 and 5660 and 7600 and 7150"}, {"measurement": "IkB Average", "setting": "TNF 60 min", "result": 6758}, {"measurement": "IKB with CHX Raw data", "setting": "TNF 80 min", "result": "19070 and 18960 and 19260 and 19280"}, {"measurement": "IKB with CHX Subtract reagent background", "setting": "TNF 80 min", "result": "7300 and 7190 and 7490 and 7510"}, {"measurement": "IkB Average", "setting": "TNF 80 min", "result": 7373}, {"measurement": "IKB with CHX Raw data", "setting": "TNF 100 min", "result": "19610 and 18970 and 19990 and 19730"}, {"measurement": "IKB with CHX Subtract reagent background", "setting": "TNF 100 min", "result": "7840 and 7200 and 8220 and 7960"}, {"measurement": "IkB Average", "setting": "TNF 100 min", "result": 7805}, {"measurement": "IKB with CHX Raw data", "setting": "TNF 120 min", "result": "20170 and 20220 and 20080 and 18790"}, {"measurement": "IKB with CHX Subtract reagent background", "setting": "TNF 120 min", "result": "8400 and 8450 and 8310 and 7020"}, {"measurement": "IkB Average", "setting": "TNF 120 min", "result": 8045}]}]}
